Results taken from patent US7491836B2, “Non-ionic surfactants for poorly soluble molecules” (AstraZeneca AB, priority 2003, dated 2009).
Converted amounts (≈) assume the structure as drawn.

system: not listed separately; assay: physchem; conditions: not given
Protocol: The solubilization capacity of the compounds of the invention and compounds of prior art for two poorly soluble (i.e. less than sparingly soluble) drug molecules, felodipine and griseofulvin, were tested. […] Sci., 1998, 87(2), 200-8]. The solubilization capacity for each surfactant was determined from the slope of the curve in a graph where the felodipine/griseofulvin concentration was plotted against the surfactant concentration at surfactant concentrations above CMC (critical micellar concentration).

| solubility in water [µM] | Compound |
| --- | --- |
| 2.1 (≈ 0.807 µg/mL) | CCOC(=O)C1=C(C)NC(C)=C(C(=O)OC)C1c1cccc(Cl)c1Cl (stereo not shown) [felodipine] |

same assay, conditions: water

| solubility [µM] | Compound |
| --- | --- |
| ~23 (≈ 8.11 µg/mL) | COC1=CC(=O)C[C@@H](C)[C@]12Oc1c(Cl)c(OC)cc(OC)c1C2=O [griseofulvin] |

system: CACO-2 cells; assay: Epithelial cell interaction monitored as transepithelial electrical resistance (TEER); assay type: cell-based; conditions: after 8 hours
Protocol: Possible interaction with epithelial cells in the form of CACO-2 cells monitored as transepitheliar electrical resistance (TEER) was studied for some of the compounds. In short, after an equilibration time of 60 min the buffer solution at the donor side was exchanged with a buffer solution containing a certain concentration of the surfactant and TEER was then measured after 8 hours.

| change in TEER / interaction with epithelial cells (in words) | Compound |
| --- | --- |
| substantial decrease in TEER | PEG1500 mono-12-lauroyloxy-stearate |

same assay, conditions: surfactant conc 0.1 mM

| Compound | TEER after 8 hours exposure [%] |
| --- | --- |
| CCCCCCC(CCCCCCCCCCC(=O)OCCOCCOCCOCCOCCOCCOCCOCCOCCOCCOCCOCCOCCO)OC(=O)CCCCC (stereo not shown) [PEG600 mono-12-hexanoyloxy-stearate] | 89 |
| PEG1500 mono-12-oleoyloxy-stearate | 105 |
| PEG1500 mono-12-palmitoyloxy-stearate | 98 |

Now from value to compound:

| TEER after 8 hours exposure [%] | Compound |
| --- | --- |
| 100 | PEG1500 mono-12-lauroyloxy-stearate |
| 104 | PEG1500 mono-12-myristoyloxy-stearate |
| 98 | PEG1500 mono-12-stearoyloxy-stearate |

same assay, conditions: surfactant conc 1 mM

| Compound | TEER after 8 hours exposure [%] |
| --- | --- |
| CCCCCCC(CCCCCCCCCCC(=O)OCCOCCOCCOCCOCCOCCOCCOCCOCCOCCOCCOCCOCCO)OC(=O)CCCCC (stereo not shown) [PEG600 mono-12-hexanoyloxy-stearate] | 43 |
| PEG1500 mono-12-oleoyloxy-stearate | 104 |
| PEG1500 mono-12-palmitoyloxy-stearate | 105 |

Further lines, results first:

| TEER after 8 hours exposure [%] | Compound |
| --- | --- |
| 96 | PEG1500 mono-12-lauroyloxy-stearate |
| 100 | PEG1500 mono-12-myristoyloxy-stearate |
| 104 | PEG1500 mono-12-stearoyloxy-stearate |

same assay, conditions: surfactant conc 10 mM

| Compound | TEER after 8 hours exposure [%] |
| --- | --- |
| CCCCCCC(CCCCCCCCCCC(=O)OCCOCCOCCOCCOCCOCCOCCOCCOCCOCCOCCOCCOCCO)OC(=O)CCCCC (stereo not shown) [PEG600 mono-12-hexanoyloxy-stearate] | 39 |
| MePEG2000 12-stearoyloxy-stearate | 98 |
| PEG1500 mono-12-oleoyloxy-stearate | 95 |
| PEG1500 mono-12-palmitoyloxy-stearate | 103 |

Next, values leading:

| TEER after 8 hours exposure [%] | Compound |
| --- | --- |
| 94 | MePEG1200 12-palmitoyloxy-stearate |
| 101 | MePEG1200 12-stearoyloxy-stearate |
| 96 | MePEG2000 12-palmitoyloxy-stearate |
| 93 | PEG1500 mono-12-lauroyloxy-stearate |
| 104 | PEG1500 mono-12-myristoyloxy-stearate |
| 103 | PEG1500 mono-12-stearoyloxy-stearate |

same assay, conditions: surfactant conc 50 mM

| Compound | TEER after 8 hours exposure [%] |
| --- | --- |
| CCCCCCC(CCCCCCCCCCC(=O)OCCOCCOCCOCCOCCOCCOCCOCCOCCOCCOCCOCCOCCO)OC(=O)CCCCC (stereo not shown) [PEG600 mono-12-hexanoyloxy-stearate] | 37 |
| MePEG2000 12-stearoyloxy-stearate | 96 |
| PEG1500 mono-12-oleoyloxy-stearate | 108 |
| PEG1500 mono-12-palmitoyloxy-stearate | 101 |

Other lines, results leading:

| TEER after 8 hours exposure [%] | Compound |
| --- | --- |
| 103 | MePEG1200 12-palmitoyloxy-stearate |
| 71 | MePEG1200 12-stearoyloxy-stearate |
| 99 | MePEG2000 12-palmitoyloxy-stearate |
| 37 | PEG1500 mono-12-lauroyloxy-stearate |
| 98 | PEG1500 mono-12-myristoyloxy-stearate |
| 108 | PEG1500 mono-12-stearoyloxy-stearate |

system: not given; assay: not given; conditions: cited from earlier work

| Compound | solubility in water |
| --- | --- |
| CCOC(=O)C1=C(C)NC(C)=C(C(=O)OC)C1c1cccc(Cl)c1Cl (stereo not shown) [felodipine] | 0.8 µg/mL (≈ 2.08 µM) |
| COC1=CC(=O)C[C@@H](C)[C@]12Oc1c(Cl)c(OC)cc(OC)c1C2=O [griseofulvin] | approximately 8.1 μg/ml |

system: dog blood erythrocyte suspension; assay: Haemolytic activity, static method (erythrocyte suspension incubated with surfactant, haemoglobin analysed); assay type: cell-based; conditions: at 1 mM
Protocol: A static method for evaluating the haemolytic activity of compounds was used. In short, dog blood is processed to an erythrocyte suspension, which is then incubated (40 min at 37° C.) with varying concentrations of a surfactant. The incubation is terminated by centrifugation after which the plasma, now containing different amounts of haemoglobin, can be removed and analysed. The results obtained for various MePEG- and PEG mono-12-acyloxy-stearate esters compared with a reference substance (Tween 80), are summarized in tables 3-4.

| Compound | haemolysis (in words) |
| --- | --- |
| CCCCCCC(O)CCCCCCCCCCC(=O)OCCOCCOCCOCCOCCOCCOCCOCCOCCOCCOCCOCCOC (stereo not shown) [MePEG550 12-hydroxystearate] | profound hemolysis |

same assay, conditions: surfactant conc 0.6 mM; 40 min at 37° C.

| Compound | Hemolysis [%] |
| --- | --- |
| CCCCCCC(CCCCCCCCCCC(=O)OCCOCCOCCOCCOCCOCCOCCOCCOCCOCCOCCOCCOCCO)OC(=O)CCCCC (stereo not shown) [PEG600 mono-12-hexanoyloxy-stearate] | 83 |
| CCCCCCCC(=O)OC(CCCCCC)CCCCCCCCCCC(=O)OCCOCCOCCOCCOCCOCCOCCOCCOCCOCCOCCOCCOCCO (stereo not shown) [PEG600 mono-12-octanoyloxy-stearate] | 88 |

same assay, conditions: surfactant conc 0.7 mM; 40 min at 37° C.

| Compound | Hemolysis [%] |
| --- | --- |
| CCCCCCC(CCCCCCCCCCC(=O)OCCOCCOCCOCCOCCOCCOCCOCCOCCOCCOCCOCCOCCO)OC(=O)CCCCC (stereo not shown) [PEG600 mono-12-hexanoyloxy-stearate] | 92 |
| CCCCCCCC(=O)OC(CCCCCC)CCCCCCCCCCC(=O)OCCOCCOCCOCCOCCOCCOCCOCCOCCOCCOCCOCCOCCO (stereo not shown) [PEG600 mono-12-octanoyloxy-stearate] | 102 |

same assay, conditions: surfactant conc 1.0 mM; 40 min at 37° C.

| Compound | Hemolysis [%] |
| --- | --- |
| CCCCCCC(O)CCCCCCCCCCC(=O)OCCOCCOCCOCCOCCOCCOCCOCCOCCOCCOCCOCCOC (stereo not shown) [MePEG550 12-hydroxystearate] | 25 |

same assay, conditions: surfactant conc 5.0 mM; 40 min at 37° C.

| Compound | Hemolysis [%] |
| --- | --- |
| CCCCCCC(O)CCCCCCCCCCC(=O)OCCOCCOCCOCCOCCOCCOCCOCCOCCOCCOCCOCCOC (stereo not shown) [MePEG550 12-hydroxystearate] | 86 |

same assay, conditions: surfactant conc 10 mM; 40 min at 37° C.

| Compound | Hemolysis [%] |
| --- | --- |
| CCCCCCC(O)CCCCCCCCCCC(=O)OCCOCCOCCOCCOCCOCCOCCOCCOCCOCCOCCOCCOC (stereo not shown) [MePEG550 12-hydroxystearate] | 79 |

same assay, conditions: text summary of Tables 3-4

| Compound | concentration causing total haemolysis [µM] |
| --- | --- |
| CCCCCCC(O)CCCCCCCCCCC(=O)OCCOCCOCCOCCOCCOCCOCCOCCOCCOCCOCCOCCOC (stereo not shown) [MePEG550 12-hydroxystearate] | 5000 |
